Data from patent publication US12649980B2, “Three-dimensional surface for protein and small molecule microarrays” (The Johns Hopkins University, priority 2019, dated 2026).

Assays:
[1] = system: DLD1 GLUT1 KO; assay: [3H]-2DG uptake in DLD1 GLUT1 knockout cells; assay type: cell-based; details: for inhibitory activity in GLUT1 knock out cells: DLD-1 GLUT1 knock out versus wild type
Procedure: (§1) The inhibitory activity of compounds on glucose transport was analyzed by measuring the cell uptake of [3H]-2DG as previously described. Ulanovskaya et al., Chem. Biol. 2011, 18, 222-230. Briefly, cells were washed twice and incubated in low-glucose medium for 10 min. Cells were added drugs and incubated for another 10 min before adding [3H]-2DG. After 10 min incubation with [3H]-2DG, cells were washed twice and lysed with 0.2 N NaOH plus 0.2% SDS. The cell lysate was transferred to a new tube containing 1 mL of optiphase supermix. Glucose uptake was quantified with a scintillation counter.

[2] = system: DLD1 WT; assay: [3H]-2DG uptake in DLD1 WT cells; assay type: cell-based
Procedure: as §1

[3] = system: A549 cells; assay: [3H]-2DG uptake assay in A549 cells; assay type: cell-based, human; details: 10 min incubation with compound, mean ± s.d., n = 3
Procedure: To determine which of the 17 rapafucin hits inhibited the transporter activity of GLUT1, an orthogonal glucose uptake assay using 2-deoxy-D-[3H] glucose ([3H]-2DG), a nonhydrolyzable, radioactive glucose analog, was employed. Each hit was separately incubated with A549 cells for 10 min before the amount of [3H]-2DG taken up by the cells was measured using scintillation counting. […] The effect of JW11-D2 on uptake of [3H]-2DG in human red blood cells that exclusively express GLUT1 was then determined. Helgerson and Carruthers, J. Biol. Chem. 1987, 262, 5464-5475. […] To further improve the potency of JW11-D2, a structure-activity relationship (SAR) study was performed by synthesizing 21 new analogs of JW11-D2 using different amino acid building blocks.
as §1

[4] = target: T1, GLUT1 (Homo sapiens, UniProt P11166); assay: rapafucin 2D microarray screen with GLUT1-containing cell lysate; assay type: binding; details: signal-to-background ratio, 2D surface, same lysate and conditions
T1 construct: The full-length human SLC2A1, SLC2A3, and SLC2A4 genes were PCR amplified and inserted into pLenti6M vector 2; expressed in transfected cells
T1 sequence (P11166 1-492): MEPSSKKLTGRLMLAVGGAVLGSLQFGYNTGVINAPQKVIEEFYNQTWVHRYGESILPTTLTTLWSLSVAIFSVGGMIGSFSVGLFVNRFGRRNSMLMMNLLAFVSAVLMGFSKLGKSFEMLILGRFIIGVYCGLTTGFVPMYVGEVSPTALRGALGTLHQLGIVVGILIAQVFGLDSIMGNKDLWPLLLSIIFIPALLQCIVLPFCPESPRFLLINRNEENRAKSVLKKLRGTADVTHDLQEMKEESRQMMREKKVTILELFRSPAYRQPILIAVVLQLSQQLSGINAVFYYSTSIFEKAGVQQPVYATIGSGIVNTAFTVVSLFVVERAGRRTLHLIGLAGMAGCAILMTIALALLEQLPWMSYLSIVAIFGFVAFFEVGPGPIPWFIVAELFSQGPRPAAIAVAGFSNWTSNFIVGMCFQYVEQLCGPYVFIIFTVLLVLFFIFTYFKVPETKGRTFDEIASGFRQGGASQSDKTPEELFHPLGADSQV
Excerpt: (§2) Once stock solutions of the rapafucin library were arrayed on the 2D or 3D surface and most of solvent carrier was evaporated, the crosslinking reaction was initiated by irradiating the surfaces with 365-nm wavelength UV light. Kawatani and Osada, Medchemcomm 2014, 5, 277-287. […] To screen for GLUT1-interacting rapafucins, GLUT1 was stably overexpressed in HEK293T cells and generated cell lysates containing detergent-solubilized recombinant GLUT1 (FIG. 10). The GLUT1-containing cell lysate was then incubated on both 2D and 3D rapafucin microarrays. After washing the slides to remove unbound proteins, the bound GLUT1 protein was detected with anti-GLUT1 antibodies, followed by visualization with Cy5-labeled secondary antibodies using a microarray scanner. Rapafucins were scored as positive hits when the corresponding SBR was greater than 3. Based on this criterion, a total of 17 rapafucin hits and one positive control BAY-876, a specific GLUT1 inhibitor, Siebeneicher et al., ChemMedChem 2016, 11, 2261-2271, were identified on the 3D rapafucin microarray. In contrast, only one hit (WL13-F11, also among the 17 hits identified from the 3D rapafucin microarray) was identified on the 2D rapafucin microarray (Table 1, FIG. 11).
(§3) In the optimization experiments, the slides were incubated with 50 nM purified recombinant FKBP12 for 1 hour, while in the GLUT1 screening, 10 mg/mL of cell lysate containing DDM-solubilized GLUT1 from GLUT1 overexpressed HEK293T was incubated for 1 hour. Successively, primary antibody and CY5 labeled secondary antibody were added for 1 hour. The chips were washed in buffer A for 5 mins 3 times after the sample and antibodies incubation. After centrifugation, the dried chips were scanned by a microarray scanner (Genepix, US) at 635-nm wavelength. The final result was analyzed by GenePix software.

[5] = target: T1, GLUT1; assay: rapafucin 3D microarray screen with GLUT1-containing cell lysate; assay type: binding; details: signal-to-background ratio, 3D surface, lysate of GLUT1-overexpressing HEK293T; hit if SBR > 3
Excerpt: as §2
The amine substrates (Arrayit, SMM) were immerged in a mixture of 2-bromoisobutyryl bromide (BIBB, 0.1 mM, as initiator) and propionyl bromide (10 mM, as horizontal spacer) with triethylamine (15 mM) in DCM for 4 hours. A degassed polymerization reaction mixture, containing copper (II) chloride dihydrate (CuCl2, 4 mmol), 2,2′-bipyridine (2 mmol), 75 mmol monomers mixture of 2-(dimethylamino)ethyl methacrylate (DMAEMA) and poly(ethylene glycol) methacrylate (PEGMA Mn 360) in 500 mL Milli-Q/MeOH, was mixed with freshly made ascorbic acid (4 mmol). The mixture was applied to 50 slides for 6 hours under the argon atmosphere for the surface-initiated polymerization. A gradient ratio of PEGMA and DMAEMA was set, including 10:0, 8:2, 5:5, 2:8 and 0:10 for an optimization purpose. The terminals of the brushes were further functionalized by N,N′-disuccinimidyl carbonate (DSC, 10 mM) and 4-dimethylaminopyridine (DMAP,10 mM) in DMF overnight to form succinimidyl carbonate intermediate, and, successively, diazirine linker 1 (10 mM) and N,Ndiisopropylethylamine (DIPEA, 50 mM) in DMF for 2 hours to couple the photoaffinity linker in dark at room temperature. At the end, the substrates were immerged in a 50 mM ethanolamine in DMF to block the residual carboxylic moiety. The slides were thoroughly washed by DMF, EtOH and DCM and dried in a fuming cupboard and ready for spotting.
10 mM of rapafucins in DMSO from the library were spotted onto the slides with a high-precision microarrayer (Nanoprint, Arrayit, CA) for a desired pattern in dark, which was loaded with 16 100-μm diameter micro-spotting pins. The pin heads were thoroughly washed and sonicated in ethanol and dried for 4 times under a compassed air between each sample loading. After overnight evaporation, the slides were exposed to 365-nm wavelength UV irradiation for 4 J/cm^2 by CL-1000L UV crosslinker (UVP, CA) for rapafucins covalent immobilization. The slides were ultrasonic cleaned successively in DCM, MeOH and Milli-Q water and stored in a −20° C. freezer.
as §3

[6] = system: glutathione S-transferases; details: Yamada and Kaplowitz 1980; cited from earlier work
[7] = target: T1, GLUT1; assay: biotin-RgA pull-down and biotin probe competition binding assay, GLUT1; details: lysate of HEK293T overexpressing GLUT1, Western blot
Procedure: Next, the binding affinity of RgA for GLUT1 was determined using a RgA biotin pull-down assay. A biotin-RgA conjugate was synthesized by tethering the biotin moiety through carbon:carbon double bond in the FKBP-binding domain of RgA (FIG. 13). […] Using the biotin-RgA conjugate, a pulldown experiment with cell lysate containing detergent-solubilized GLUT1 protein prepared from HEK293T cells overexpressing GLUT1 was performed, followed by Western blot analysis with a GLUT1-specific antibody.
The estimation of Kd value for RgA was determined with the biotin probe competition binding assay. […] After western blot, band intensities were quantified by densitometry analysis using Image J software. The assay was repeated three times. GraphPad Prism (v4.03) software was used to determine apparent Kd value for RgA using a nonlinear regression.

[8] = target: GLUT4 (Homo sapiens, UniProt P14672); assay: biotin-RgA pull-down assay, GLUT4; details: lysate of HEK293T overexpressing GLUT4, Western blot
Sequence of GLUT4 (P14672 whole entry): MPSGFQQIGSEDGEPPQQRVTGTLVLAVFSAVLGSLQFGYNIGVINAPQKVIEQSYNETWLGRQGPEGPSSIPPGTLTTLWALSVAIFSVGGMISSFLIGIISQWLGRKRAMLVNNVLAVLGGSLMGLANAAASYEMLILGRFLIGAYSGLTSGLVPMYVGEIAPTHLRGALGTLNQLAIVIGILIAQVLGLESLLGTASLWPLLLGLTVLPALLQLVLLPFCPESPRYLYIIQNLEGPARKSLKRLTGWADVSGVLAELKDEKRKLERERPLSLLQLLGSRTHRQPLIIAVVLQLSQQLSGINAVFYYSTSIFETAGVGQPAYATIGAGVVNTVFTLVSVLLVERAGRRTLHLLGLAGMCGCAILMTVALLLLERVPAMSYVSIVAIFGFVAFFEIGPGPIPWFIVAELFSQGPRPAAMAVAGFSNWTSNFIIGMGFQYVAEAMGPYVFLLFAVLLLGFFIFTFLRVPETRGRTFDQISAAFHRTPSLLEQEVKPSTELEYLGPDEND
Procedure: (§4) It was further determined whether RgA is specific for GLUT1 using a pair of isogenic cell lines.
(§5) GLUT1 or other isoforms overexpression HEK293T cells were washed once in buffer A (10 mM Tris-HCl, 150 mM KCl, 5 mM MgCl2, 1 mM EGTA, pH 7.4). To extract GLUT1 or isoforms protein, cells were mixed in buffer C (10 mM Tris-HCl, 150 mM KCl, 5 mM MgCl2, 1% DDM, 5% glycerol, 1 mM EGTA, protease inhibitor, pH 7.4) and incubated on ice for 1 h with frequent mixing. The supernatant was collected by centrifugation at 17,000 g for 10 min at 4° C., and then diluted four-fold in buffer A plus 5% glycerol to reduce the concentration of DDM. The diluted supernatant was quantified by protein assay kit and pre-incubated with streptavidin agarose beads at 4° C. for 30 min to remove the endogenous streptavidin-binding proteins. The supernatant was collected by centrifugation at 2,000 rpm for 1 min at 4° C., and diluted to 10 mg/mL for pull-down experiment. For a typical biotin pull- down reaction, 300 μL of supernatant was pretreated with competitor or equal volume of DMSO (as noted hereinabove) for 30 min, before the addition of RgA biotin probe or DMSO (as noted hereinabove). After incubation at 4° C. for 1 h with frequent mixing, 30 μL of streptavidin agarose beads in buffer A was added, and incubation was continued for 2 h. […]

[9] = target: GLUT3 (Homo sapiens, UniProt P11169); assay: biotin-RgA pull-down assay, GLUT3; details: lysate of HEK293T overexpressing GLUT3, Western blot
Sequence of GLUT3 (P11169 whole entry): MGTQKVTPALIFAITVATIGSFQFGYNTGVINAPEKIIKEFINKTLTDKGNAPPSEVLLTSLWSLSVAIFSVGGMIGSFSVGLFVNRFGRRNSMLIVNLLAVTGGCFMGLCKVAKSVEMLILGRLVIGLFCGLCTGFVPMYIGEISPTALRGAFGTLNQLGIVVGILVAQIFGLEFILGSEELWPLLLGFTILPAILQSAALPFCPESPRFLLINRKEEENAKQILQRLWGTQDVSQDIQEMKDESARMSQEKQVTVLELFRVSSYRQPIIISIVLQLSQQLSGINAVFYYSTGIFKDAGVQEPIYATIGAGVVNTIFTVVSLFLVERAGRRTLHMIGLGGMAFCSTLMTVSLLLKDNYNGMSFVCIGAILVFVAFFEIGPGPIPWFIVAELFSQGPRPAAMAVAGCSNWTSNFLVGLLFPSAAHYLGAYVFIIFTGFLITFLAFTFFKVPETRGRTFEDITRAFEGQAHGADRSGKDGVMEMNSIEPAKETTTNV
Procedure: as §4, §5

## C=C1[C@@H](C)[C@H]2[C@H](Cc3ccccc3)NC(=O)[C@]23OC(=O)/C=C/[C@H](O)CCC[C@@H](C)C/C=C/[C@H]3[C@@H]1O [Cytochalasin B, cytochalasin B]
[1]; DLD1 GLUT1 knockout
  EC50: 390 ± 32.7 nM
[1]
  inhibitory activity in GLUT1 knock out cells: maintained its inhibitory activity
[2]; DLD1 wild type
  EC50: 545 ± 40.5 nM

## CCCC[C@H]1C(=O)N[C@@H](Cc2ccccc2)C(=O)N(C)CCC=CC(=O)OCC(C)(C)C(=O)C(=O)N2CCCC[C@H]2C(=O)O[C@H](CCc2ccc(OC)c(OC)c2)c2cccc(c2)NC(=O)CCC(=O)N(C)[C@H](Cc2ccccc2)C(=O)N[C@@H](Cc2ccc(F)cc2)C(=O)N1C [HP05-A9]
[3]
  IC50: > 3000 nM
[4]
  2D SBR: <3.0
[5]
  3D SBR: 3.4 ± 1.4

## COc1ccc(CC[C@H]2OC(=O)[C@@H]3CCCCN3C(=O)C(=O)C(C)(C)COC(=O)C=CCCN(C)C(=O)CNC(=O)CN(C)C(=O)[C@H](Cc3ccc(O)cc3)NC(=O)[C@@H](Cc3ccccc3)N(C)C(=O)COc3cccc2c3)cc1OC [WL03-G11]
[3]
  IC50: > 3000 nM
[4]
  2D SBR: <3.0
[5]
  3D SBR: 5.1 ± 0.7

## C=C(CC)C(=O)c1ccc(OCC(=O)O)c(Cl)c1Cl [ethacrynic acid]
[6]
  proportion of bound ethacrynic acid that was bound covalently: 13.5%

## Cc1c(NC(=O)c2cc(C(N)=O)nc3cc(F)ccc23)c(C(F)(F)F)nn1Cc1ccc(C#N)cc1 [BAY-876]
[1]
  inhibitory activity in GLUT1 knock out cells: lost its inhibitory activity
[1]; Homo sapiens, DLD-1, DLD1 GLUT1 knockout
  EC50: > 1000 nM
[2]; Homo sapiens, DLD-1, DLD1 wild type
  EC50: 8 ± 1.1 nM
[4]
  2D SBR: <3.0
[5]
  3D SBR: 3.2 ± 0.74

## COc1ccc(CC[C@H]2OC(=O)[C@@H]3CCCCN3C(=O)C(=O)C(C)(C)COC(=O)C=CCCN(C)C(=O)[C@H]3CCCN3C(=O)[C@H](C(C)C)N(C)C(=O)[C@H](Cc3ccc([N+](=O)[O-])cc3)NC(=O)CN(C)C(=O)COc3cccc2c3)cc1OC [WL12-G5]
[3]
  IC50: > 3000 nM
[4]
  2D SBR: <3.0
[5]
  3D SBR: 8.8 ± 2.0

## CCC(C)C1C(=O)NCC(=O)N(C)CCC(SCCCSCC(=O)NCCOCCOCCNC(=O)CCCCC2SCC3NC(=O)NC32)CC(=O)OCC(C)(C)C(=O)C(=O)N2CCCCC2C(=O)OC(CCc2ccc(OC)c(OC)c2)c2cccc(c2)NC(=O)CCC(=O)N(C)C(CC(C)C)C(=O)NC(Cc2ccccc2)C(=O)N1C (stereo not shown) [biotin-RgA]
[7]
  pulldown of GLUT1: capable of pulling down GLUT1
[8]
  pulldown of GLUT4: able to pull down both GLUT3 and GLUT4
[3]
  IC50: 211 nM
[9]
  pulldown of GLUT3: able to pull down both GLUT3 and GLUT4

## CCCC[C@H]1C(=O)N2CCC[C@@H]2C(=O)N(C)CCC=CC(=O)OCC(C)(C)C(=O)C(=O)N2CCCC[C@H]2C(=O)O[C@H](CCc2ccc(OC)c(OC)c2)c2cccc(c2)OCC(=O)N(C)CC(=O)N[C@H](Cc2ccc(NC(=O)OC(C)(C)C)cc2)C(=O)N1C [WL11-E7]
[3]
  IC50: > 3000 nM
[4]
  2D SBR: <3.0
[5]
  3D SBR: 4.8 ± 0.5
